According to US9757455B2, “Oral therapeutic compound delivery system” (Johnson & Johnson Consumer Inc., priority 2005, dated 2017):
Converted amounts (≈) assume the structure as drawn. Structures can show the parent of a compound that is named as a salt. Where two headings read alike, the source gives them in different places. Marks after values point to notes of the source that are not given here.

How the values were obtained:
[1] = Dissolution, USP dissolution apparatus 2, 900 mL 0.0033 N hydrochloric acid, 0 rpm, 37° C.; type: physicochemical; details: for % dissolved in 900 mL 0.0033 N HCl: basic and amphoteric drugs in formulations according to the invention (Table 32), 0 rpm
Method: (§1) Testing was conducted in a dissolution medium containing 900 mL 0.0033 N hydrochloric acid (HCl) at 37° C. which discriminates better between fast dissolving formulations than more acidic dissolution media where the effect of high acid concentration tends to mask formulation effects on dissolution. 900 mL of this medium contains the absolute amount of acid estimated to be present in the gastric contents in vivo, namely 3 millimoles.
Dissolution results without stirring may be of in vivo significance in conditions where there is gut stasis or reduced gastric activity.
(§2) Testing at was conducted at a stirring speed of 30 rpm and also at 0 rpm which provides more discrimination between formulations. To achieve maximum dissolution, the stirring speed was increased to 250 rpm for 10 minutes after 20 minutes for measurements at 30 rpm, and after 60 minutes for measurements at 0 rpm.
(§3) Unless otherwise stated, drug concentrations were measured using a Varian Cary 50 UV-Vis Spectrophotometer set at an appropriate wavelength using flow through cells for automatic continuous sampling. For each drug, the optimal wavelength was selected after running UV scans in the dissolution medium.

Solubility in water = details: for solubility: water
[2] = Dissolution, USP dissolution apparatus 2, 900 mL 0.0033 N hydrochloric acid, 30 rpm, 37° C.; type: physicochemical; details: basic and amphoteric drugs in formulations according to the invention (Table 32)
Method: as §1, §2, §3
A suitable C18 column and guard column were used. Results were processed using Waters Empower software.

[3] = Effect of different alkaline agents on paracetamol absorption in vivo (5 subject crossover studies, plasma paracetamol); details: human, oral, 1000 mg, two tablets each 500 mg paracetamol, fasted, read-out: Median AUC20 (converted)
Method: In a series of multiple 5 subject crossover studies, the effect of a range of different formulations containing different alkali agents on in vivo absorption were investigated. Subjects were fasted overnight and dosed with two tablets each containing 500 mg paracetamol. Plasma levels of paracetamol were monitored for 8 hours, with 10 samples taken in the first hour.

[4] = pH modulating agent: Bicarb + acid, 300 sec (Table 33)
[5] = pH modulating agent: Bicarb + acid, 15 min (Table 33)
[6] = pH modulating agent: Bicarb + acid, 30 min (Table 33)
[7] = pH modulating agent: Bicarbonate, 300 sec (Table 33)
[8] = pH modulating agent: Bicarbonate, 15 min (Table 33)
[9] = pH modulating agent: Bicarbonate, 30 min (Table 33)
[10] = dose (mg) of each drug as in Table 78
[11] = 30 minutes, 30 rpm (increased to 250 rpm after 20 minutes)

| SMILES | % dissolved in 900 mL 0.0033 N HCl ([1]; 180 sec) | % dissolved in 900 mL 0.0033 N HCl ([1]; 300 sec) | % dissolved in 900 mL 0.0033 N HCl ([1]; 15 minutes) | % dissolved in 900 mL 0.0033 N HCl ([1]; 30 minutes) | Volume (mL) of water to dissolve dose (Solubility in water; [10]) | % dissolved in 900 mL 0.0033 N HCl ([2]; 180 sec, 30 rpm) | % dissolved in 900 mL 0.0033 N HCl ([2]; 300 sec, 30 rpm) | % dissolved in 900 mL 0.0033 N HCl ([2]; 15 minutes, 30 rpm) | % dissolved in 900 mL 0.0033 N HCl [2, 11] | Effect of ↑ pH on solubility (Solubility in water) | also measured |
| --- | --- | --- | --- | --- | --- | --- | --- | --- | --- | --- | --- |
| CCN(CC)CCNC(=O)c1cc(Cl)c(N)cc1OC [Metoclopramide hydrochloride] | 26% | 69% | 86% | 91% | 50 mL | 94% | 95% | 97% | 100% |  | % drug dissolved in 900 mL 0.0033 N HCl at 0 rpm [1, 4]: 69%; % drug dissolved in 900 mL 0.0033 N HCl at 0 rpm [1, 5]: 86%; % drug dissolved in 900 mL 0.0033 N HCl at 0 rpm [1, 6]: 91%; % drug dissolved in 900 mL 0.0033 N HCl at 0 rpm [1, 7]: 5%; % drug dissolved in 900 mL 0.0033 N HCl at 0 rpm [1, 8]: 28%; % drug dissolved in 900 mL 0.0033 N HCl at 0 rpm [1, 9]: 46% |
| Cc1nccn1CC1CCc2c(c3ccccc3n2C)C1=O (stereo not shown) [Ondansetron hydrochloride] | 50% | 65% | 79% | 85% | 4 mL | 88% | 96% | 100% | 100% |  | Solubility in water (Solubility in water): 2.42 mg/mL |
| CC(=O)Nc1ccc(O)cc1 [Paracetamol] |  |  |  |  |  |  |  |  |  | ⇄ | AUC ([3]; Magnesium carbonate, dose 150 mg): 1140 ng·h/mL; AUC ([3]; Magnesium carbonate, dose 300 mg): 2010 ng·h/mL; AUC ([3]; Sodium bicarbonate, dose 200 mg): 3810 ng·h/mL; AUC ([3]; Sodium bicarbonate, dose 400 mg): 4760 ng·h/mL; AUC ([3]; Sodium bicarbonate, dose 800 mg): 4400 ng·h/mL; AUC ([3]; Sodium bicarbonate, dose 1200 mg): 2680 ng·h/mL; AUC ([3]; alkaline agent None, dose 0 mg): 1590 ng·h/mL; Volume of water (mL) to dissolve dose (Solubility in water; dose per tablet as in label): 36 mL; water needed for total dissolution of the dose (Solubility in water; doses of Example 33 (tramadol hydrochloride 37.5 mg, paracetamol 325 mg)): around 27 mL; solubility (Solubility in water): ~14000 µg/mL (≈ 92600 µM) |
| Cc1ccc(-c2cc(C(F)(F)F)nn2-c2ccc(S(N)(=O)=O)cc2)cc1 [Celecoxib] |  |  |  |  |  |  |  |  |  | ⇄ | solubility (Solubility in water): 3.46 µg/mL (≈ 9.07 µM) |
| CN1CCC[C@@H]1Cc1c[nH]c2ccc(CCS(=O)(=O)c3ccccc3)cc12 [Eletriptan hydrochloride, Eletriptan hydrobromide] | 88% | 95% | 98% | 100% | 4 mL | 94% | 96% | 97% | 99% |  |  |
| O=C(O)Cc1ccccc1Nc1c(Cl)cccc1Cl [Diclofenac potassium] |  |  |  |  |  |  |  |  |  | ↑ | Volume of water (mL) to dissolve dose (Solubility in water; dose per tablet as in label): 7 mL; solubility (Solubility in water): 10000 µg/mL |
| Cc1ccc(C)c(OCCCC(C)(C)C(=O)O)c1 [Gemfibrozil] |  |  |  |  |  |  |  |  |  | ↑ | Volume of water (mL) to dissolve dose (Solubility in water; dose per tablet as in label): 20,690 mL; solubility (Solubility in water): 29 µg/mL (≈ 116 µM) |
| COc1cccc(C2(O)CCCCC2CN(C)C)c1 (stereo not shown) [Tramadol hydrochloride] | 87% | 95% | 99% | 100% |  | 100% | 100% | 100% | 100% |  | Volume (mL) of water to dissolve dose (Solubility in water): 1.3 mL; water needed for total dissolution of the dose (Solubility in water): around 1 mL; solubility (physchem): ~30000 µg/mL; solubility (physchem; water): ~30000 µg/mL |
| CN(C)C(=O)C(CCN1CCC(O)(c2ccc(Cl)cc2)CC1)(c1ccccc1)c1ccccc1 [Loperamide hydrochloride] | 70% | 72% | 87% | 95% |  | 82% | 84% | 89% | 100% |  | % drug dissolved in 900 mL 0.0033 N HCl at 0 rpm [1, 4]: 72%; % drug dissolved in 900 mL 0.0033 N HCl at 0 rpm [1, 5]: 87%; % drug dissolved in 900 mL 0.0033 N HCl at 0 rpm [1, 6]: 95%; % drug dissolved in 900 mL 0.0033 N HCl at 0 rpm [1, 7]: 27%; % drug dissolved in 900 mL 0.0033 N HCl at 0 rpm [1, 8]: 43%; % drug dissolved in 900 mL 0.0033 N HCl at 0 rpm [1, 9]: 101%; Volume (mL) of water to dissolve dose (Solubility in water): 2 mL |
| CN(C)CCc1c[nH]c2ccc(C[C@H]3COC(=O)N3)cc12 [Zolmitriptan] | 66% | 77% | 88% | 96% | 2 mL | 73% | 76% | 86% | 98% |  |  |
| Cc1nnc2n1-c1ccc(Cl)cc1C(c1ccccc1)=NC2 [Alprazolam] | 13% | 20% | 45% | 63% | 14 mL | 61% | 67% | 77% | 100% |  | % drug dissolved in 900 mL 0.0033 N HCl at 0 rpm [1, 4]: 20%; % drug dissolved in 900 mL 0.0033 N HCl at 0 rpm [1, 5]: 45%; % drug dissolved in 900 mL 0.0033 N HCl at 0 rpm [1, 6]: 63%; % drug dissolved in 900 mL 0.0033 N HCl at 0 rpm [1, 7]: 1%; % drug dissolved in 900 mL 0.0033 N HCl at 0 rpm [1, 8]: 4%; % drug dissolved in 900 mL 0.0033 N HCl at 0 rpm [1, 9]: 4% |
| CC(C)Cc1ccc(C(C)C(=O)O)cc1 (stereo not shown) [Ibuprofen] |  |  |  |  |  |  |  |  |  | ↑ | solubility (Solubility in water): 40 µg/mL (≈ 194 µM) |
| O=C1Nc2ccc(Cl)cc2C(c2ccccc2Cl)=NC1O (stereo not shown) [Lorazepam] | 77% | 85% | 95% | 99% |  | 77% | 88% | 96% | 100% |  | % drug dissolved in 900 mL 0.0033 N HCl at 0 rpm [1, 4]: 85%; % drug dissolved in 900 mL 0.0033 N HCl at 0 rpm [1, 5]: 95%; % drug dissolved in 900 mL 0.0033 N HCl at 0 rpm [1, 6]: 99%; % drug dissolved in 900 mL 0.0033 N HCl at 0 rpm [1, 7]: 6%; % drug dissolved in 900 mL 0.0033 N HCl at 0 rpm [1, 8]: 6%; % drug dissolved in 900 mL 0.0033 N HCl at 0 rpm [1, 9]: 11% |
| C[C@@H]1C[C@H]2[C@@H]3CCC4=CC(=O)C=C[C@]4(C)[C@@]3(F)[C@@H](O)C[C@]2(C)[C@@]1(O)C(=O)CO [Dexamethasone] |  |  |  |  |  |  |  |  |  | ⇄ |  |
| C[C@]12C=CC(=O)C=C1CC[C@@H]1[C@@H]2[C@@H](O)C[C@@]2(C)[C@H]1CC[C@]2(O)C(=O)CO [Prednisolone] |  |  |  |  |  |  |  |  |  |  | Volume of water (mL) to dissolve dose (Solubility in water; dose per tablet as in label, listed as Prednisolone 5 mg): 23 mL; Volume of water (mL) to dissolve dose (Solubility in water; dose per tablet as in label, listed as Prednisolone 25 mg): 114 mL |
| Cc1ccc(-c2nc3ccc(C)cn3c2CC(=O)N(C)C)cc1 [Zolpidem tartrate] | 77% | 91% | 94% | 96% | 0.4 mL | 96% | 96% | 97% | 98% |  |  |
| CN1C(=O)C(O)N=C(c2ccccc2)c2cc(Cl)ccc21 (stereo not shown) [Temazepam] |  |  |  |  |  |  |  |  |  |  | Volume of water (mL) to dissolve dose (Solubility in water): 83 mL |
| CN(C)CCc1c[nH]c2ccc(Cn3cncn3)cc12 [Rizatriptan benzoate] | 94% |  | 100% | 100% | 0.3 mL | 96% | 96% | 96% | 97% |  | Solubility in water (Solubility in water; solubility of the base not salt): 42* mg/mL |
